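Values below derive from 48-hour exposures of cells grown in 96-well plates, with endpoints linearly interpolated between the two concentrations bracketing the appropriate inhibition level. GI50 = concentration required for 50% inhibition of growth.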 Calls of active or inactive are those of the source. Cut-off read from the data, not from the text of the source: active = GI50 up to about 1.1 µM and inactive = higher.
Experiments:
Test in all cases: NCI tumour cell line growth inhibition, 48 h
[1] = test system: A498
[2] = test system: COLO 205
[3] = test system: EKVX
[4] = test system: HCT-15
[5] = test system: Hs-578T
[6] = test system: M14
[7] = test system: MCF7
[8] = test system: NCI-H226
[9] = test system: NCI-H460
[10] = test system: OVCAR-4
[11] = test system: OVCAR-8
[12] = test system: SF-295
[13] = test system: SK-MEL-28
[14] = test system: SK-MEL-2
[15] = test system: SK-OV-3
[16] = test system: SR
[17] = test system: SW-620
[18] = test system: TK-10
[19] = test system: NCI-H23
[20] = test system: T47D

For `O=S(=O)(c1ccccc1)c1cccc2c1NCCC2`, the GI50 [1] was > 100 µM (inactive), the GI50 [2] was > 10 µM (inactive) and the GI50 [3] was 58.3 µM (inactive). The GI50 [4] was 32.4 µM, the GI50 [5] was 52.1 µM (inactive) and the GI50 [6] was 75.5 µM (inactive). The GI50 [7] was 40.8 µM (inactive), the GI50 [8] was 49.9 µM (inactive) and the GI50 [9] was 43.4 µM (inactive). The GI50 [10] was > 100 µM (inactive), the GI50 [11] was 58.6 µM (inactive) and the GI50 [12] was 31 µM (inactive). For the same molecule, the GI50 [13] was 36.7 µM (inactive), the GI50 [14] was > 10 µM (inactive) and the GI50 [15] was > 10 µM (inactive). For the same molecule, the GI50 [16] was 38.3 µM (inactive), the GI50 [17] was 40.7 µM (inactive) and the GI50 [18] was 64.9 µM (inactive).

`c1csc(-c2ccc(-c3cccc4nsnc34)s2)c1` was tested, and the GI50 [1] was > 100 µM (inactive), the GI50 [2] was > 100 µM (inactive) and the GI50 [3] was > 100 µM (inactive). For the same molecule, the GI50 [4] was greater than 100 µM, the GI50 [6] was > 100 µM (inactive) and the GI50 [7] was 14.7 µM (inactive). For the same molecule, the GI50 [8] was > 100 µM (inactive), the GI50 [19] was > 100 µM (inactive) and the GI50 [9] was > 100 µM (inactive). The GI50 [10] was 21.7 µM (inactive), the GI50 [11] was > 100 µM (inactive) and the GI50 [12] was 44.8 µM (inactive). For the same molecule, the GI50 [13] was > 100 µM (inactive), the GI50 [14] was > 100 µM (inactive) and the GI50 [15] was > 100 µM (inactive). For the same molecule, the GI50 [16] was 13 µM (inactive), the GI50 [17] was > 100 µM (inactive) and the GI50 [20] was 5.32 µM (inactive). For the same molecule, the GI50 [18] was 70.5 µM (inactive).

For `CCOC(=O)Cn1c(=O)c2nc(SC)sc2n(-c2ccccc2)c1=O`, the GI50 [1] was 22.4 µM (inactive), the GI50 [2] was > 100 µM (inactive) and the GI50 [3] was > 100 µM (inactive). The GI50 [4] was greater than 100 µM, the GI50 [5] was > 100 µM (inactive) and the GI50 [6] was > 100 µM (inactive). The GI50 [7] was > 100 µM (inactive), the GI50 [8] was > 100 µM (inactive) and the GI50 [19] was > 100 µM (inactive). For the same molecule, the GI50 [9] was > 100 µM (inactive), the GI50 [11] was > 100 µM (inactive) and the GI50 [13] was > 100 µM (inactive). For the same molecule, the GI50 [14] was > 100 µM (inactive), the GI50 [16] was > 100 µM (inactive) and the GI50 [17] was > 100 µM (inactive). The GI50 [18] was > 100 µM (inactive).

With `COC(=O)C(=O)C(C(=O)C(=O)Nc1cccc([N+](=O)[O-])c1)c1nc2ccc(Cl)cc2nc1O` (configuration not stated) the GI50 [2] was > 100 µM (inactive), the GI50 [3] was 18.1 µM (inactive) and the GI50 [4] was greater than 100 µM. The GI50 [5] was > 100 µM (inactive), the GI50 [6] was > 100 µM (inactive) and the GI50 [7] was > 100 µM (inactive). The GI50 [8] was 82.6 µM (inactive), the GI50 [19] was > 100 µM (inactive) and the GI50 [9] was > 100 µM (inactive). For the same molecule, the GI50 [10] was > 100 µM (inactive), the GI50 [11] was > 100 µM (inactive) and the GI50 [12] was > 100 µM (inactive). The GI50 [13] was > 100 µM (inactive), the GI50 [14] was > 100 µM (inactive) and the GI50 [15] was > 100 µM (inactive). The GI50 [17] was > 100 µM (inactive) and the GI50 [18] was > 100 µM (inactive).

`O=c1[nH]n(CCc2ccccc2CCl)c2ccc([N+](=O)[O-])cc12` was tested, and the GI50 [1] was 91 µM (inactive), the GI50 [2] was > 100 µM (inactive) and the GI50 [3] was 3.65 µM (inactive). For the same molecule, the GI50 [4] was greater than 100 µM, the GI50 [5] was 54.3 µM (inactive) and the GI50 [6] was 58.1 µM (inactive). The GI50 [7] was 48.5 µM (inactive), the GI50 [8] was 95.9 µM (inactive) and the GI50 [19] was 89.9 µM (inactive). The GI50 [9] was 57 µM (inactive), the GI50 [10] was 37.2 µM (inactive) and the GI50 [11] was 71.3 µM (inactive). The GI50 [12] was 52.5 µM (inactive), the GI50 [13] was > 100 µM (inactive) and the GI50 [14] was > 100 µM (inactive). The GI50 [16] was 50.9 µM (inactive), the GI50 [17] was > 100 µM (inactive) and the GI50 [18] was > 100 µM (inactive).

For `CC1(C)COC2(OC1)C1=NS(=O)(=O)CC13CCC2C3(C)C` (configuration not stated), the GI50 [1] was > 100 µM (inactive), the GI50 [2] was > 100 µM (inactive) and the GI50 [3] was > 100 µM (inactive). For the same molecule, the GI50 [4] was greater than 100 µM, the GI50 [6] was > 100 µM (inactive) and the GI50 [8] was > 100 µM (inactive). For the same molecule, the GI50 [19] was > 100 µM (inactive), the GI50 [9] was > 100 µM (inactive) and the GI50 [10] was > 100 µM (inactive). For the same molecule, the GI50 [11] was > 100 µM (inactive), the GI50 [12] was > 100 µM (inactive) and the GI50 [13] was > 100 µM (inactive). The GI50 [14] was > 100 µM (inactive), the GI50 [15] was > 100 µM (inactive) and the GI50 [16] was > 100 µM (inactive). For the same molecule, the GI50 [17] was > 100 µM (inactive) and the GI50 [18] was > 100 µM (inactive).

For `Cc1ccc(-c2c(C#N)c(N)[nH]c(=S)c2C#N)cc1`, the GI50 [1] was 35.2 µM (inactive), the GI50 [2] was 24 µM (inactive) and the GI50 [3] was 13.4 µM (inactive). The GI50 [4] was 38.7 µM, the GI50 [5] was 18.5 µM (inactive) and the GI50 [6] was 43.6 µM (inactive). For the same molecule, the GI50 [7] was 32 µM (inactive), the GI50 [8] was 23.9 µM (inactive) and the GI50 [19] was 39.7 µM (inactive). The GI50 [9] was 47.6 µM (inactive), the GI50 [10] was 54.7 µM (inactive) and the GI50 [11] was 46.3 µM (inactive). The GI50 [12] was 32.8 µM (inactive), the GI50 [13] was 26.2 µM (inactive) and the GI50 [14] was 25.2 µM (inactive). For the same molecule, the GI50 [16] was 22.2 µM (inactive), the GI50 [17] was 13.6 µM (inactive) and the GI50 [18] was 73.6 µM (inactive).

`Cc1ncc(COP(=O)(O)O)c(/C=C2\SC(=S)NC2=O)c1O` was tested, and the GI50 [1] was > 100 µM (inactive), the GI50 [2] was > 100 µM (inactive) and the GI50 [3] was > 100 µM (inactive). The GI50 [4] was greater than 100 µM, the GI50 [6] was > 100 µM (inactive) and the GI50 [7] was > 100 µM (inactive). The GI50 [8] was > 100 µM (inactive), the GI50 [19] was > 100 µM (inactive) and the GI50 [9] was > 100 µM (inactive). The GI50 [10] was > 100 µM (inactive), the GI50 [11] was > 100 µM (inactive) and the GI50 [12] was > 22.3 µM (inactive). The GI50 [13] was > 100 µM (inactive), the GI50 [14] was > 100 µM (inactive) and the GI50 [15] was > 100 µM (inactive). For the same molecule, the GI50 [16] was > 100 µM (inactive), the GI50 [17] was > 100 µM (inactive) and the GI50 [20] was > 100 µM (inactive). The GI50 [18] was > 100 µM (inactive).
